From BindingDB's records for doi:10.1016/s0960-894x(02)00329-3 (Sankyo, 2002)

Biological target: Neuraminidase (Influenza A virus (strain A/Puerto Rico/8/1934 H1N1), UniProt P03468)
Experiment: Inhibition of influenza A sialidase in vitro.

Neuraminidase, sequence (P03468 whole entry): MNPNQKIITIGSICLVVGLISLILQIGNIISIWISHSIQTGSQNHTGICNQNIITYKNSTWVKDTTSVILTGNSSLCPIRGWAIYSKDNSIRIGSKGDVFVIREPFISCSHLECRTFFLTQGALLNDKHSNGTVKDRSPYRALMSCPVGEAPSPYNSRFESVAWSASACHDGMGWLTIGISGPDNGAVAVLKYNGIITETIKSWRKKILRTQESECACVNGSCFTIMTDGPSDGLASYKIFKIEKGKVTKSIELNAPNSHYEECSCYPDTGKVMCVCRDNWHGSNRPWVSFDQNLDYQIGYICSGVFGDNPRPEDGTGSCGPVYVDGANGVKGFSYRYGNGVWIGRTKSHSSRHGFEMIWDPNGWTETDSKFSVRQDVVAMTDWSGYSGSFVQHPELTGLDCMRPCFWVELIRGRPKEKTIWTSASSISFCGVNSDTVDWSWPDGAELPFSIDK

## [C][C][C][C][C]O[C@H]([C][C])[C@@H]1OC(C([O])=O)=[C][C@H](N=C([N])[N])[C@H]1[N]C([C])=O
  IC50: 0.0188 µM

## [C]C(=O)[N][C][C]O[C@@H]([C@@H]1OC(C([O])=O)=[C][C@H](N=C([N])[N])[C@H]1[N]C([C])=O)[C@H]([O])[C][O]
  IC50: 0.0184 µM
